Among the data in US7709482B2, “Polycyclic heteroaryl substituted triazoles useful as Axl inhibitors” (Rigel Pharmaceuticals, Inc., priority 2006, dated 2010) are IC50 values, retold here.

Molecules are shown by their SMILES. Like-named read-outs stand apart in the source and are kept apart here.

In this test the target is T1, Axl (Homo sapiens, UniProt P30530).
T1 construct: endogenous in cells; host or cells: HeLa cells
T1 sequence (P30530 26-894): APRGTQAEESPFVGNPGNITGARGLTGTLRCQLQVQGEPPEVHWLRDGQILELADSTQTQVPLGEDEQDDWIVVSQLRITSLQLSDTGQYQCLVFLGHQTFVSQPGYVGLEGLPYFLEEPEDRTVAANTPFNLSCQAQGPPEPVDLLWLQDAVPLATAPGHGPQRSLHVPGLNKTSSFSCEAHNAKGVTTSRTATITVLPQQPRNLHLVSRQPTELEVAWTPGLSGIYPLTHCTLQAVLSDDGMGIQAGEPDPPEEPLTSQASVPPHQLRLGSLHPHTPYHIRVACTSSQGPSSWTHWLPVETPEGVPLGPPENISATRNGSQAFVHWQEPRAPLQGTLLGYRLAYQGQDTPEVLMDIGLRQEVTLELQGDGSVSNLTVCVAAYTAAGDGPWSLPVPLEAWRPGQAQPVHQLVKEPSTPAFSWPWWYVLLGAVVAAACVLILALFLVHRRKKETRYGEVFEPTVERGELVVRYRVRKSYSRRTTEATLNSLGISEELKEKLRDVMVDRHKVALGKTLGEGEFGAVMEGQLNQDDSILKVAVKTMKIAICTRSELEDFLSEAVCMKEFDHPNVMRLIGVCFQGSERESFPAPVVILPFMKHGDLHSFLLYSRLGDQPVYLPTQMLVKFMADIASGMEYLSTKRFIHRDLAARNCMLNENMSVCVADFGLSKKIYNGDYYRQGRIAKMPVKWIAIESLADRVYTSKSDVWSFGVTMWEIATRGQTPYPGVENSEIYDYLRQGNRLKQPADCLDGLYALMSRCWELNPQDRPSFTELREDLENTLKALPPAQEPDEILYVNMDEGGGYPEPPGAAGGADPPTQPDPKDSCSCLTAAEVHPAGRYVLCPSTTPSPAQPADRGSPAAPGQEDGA
As to the kind of experiment: Phospho-Akt In-Cell Western Assay (inhibition of Axl activity after Axl-antibody cross-linking). The format is cell-based. The conditions noted are these: read-out: IC50. The protocol: The compounds of the invention were tested in the following assay for their ability to inhibit Axl activity.
Phospho-Akt In-Cell Western Assay
• Cell culture plate: 96 well assay plate (Corning 3610), white, clear bottom, tissue-culture treated. • Cells: Hela cells. • Starvation medium: For Axl stimulation: 0.5% FCS (fetal calf serum) in DMEM, plus Axl/Fc (extracellular domain of AXL fused to immunoglobulin Fc region) (R&D, 154-AL) 500 ng/mL. • For EGF (epidermal growth factor) stimulation: 0.5% FCS in DMEM (Dulbecco's modified Eagles medium). • Poly-L-Lysine 0.01% solution (the working solution): […], dilute In PBS (phosphate buffered saline). • Axl antibody cross-linking: • 1st: Mouse anti-Axl (R&D, MAB154). • 2nd: Biotin-SP-conjugated AffiniPure goat anti-mouse IgG (H+ L) (Jackson ImmunoResearch #115-065-003). • Fixing buffer: 4% formaldehyde in PBS. • Wash buffer: 0.1% TritonX-100 in PBS. • Quenching buffer: 3% H2O2, 0.1% Azide in wash buffer, Azide and hydrogen peroxide (H2O2) are added fresh. • Blocking buffer: 5% BSA in TBST (tris buffered saline plus 0.1% Tween 20). • Primary antibody: Rabbit anti-human Phospho-Akt antibody (Cell Signaling 9271): 1×250 diluted in blocking buffer. • Secondary antibody: HRP (horse radish peroxidase)-conjugated Goat anti-Rabbit secondary, stock solution: Jackson ImmunoResearch (Goat anti-Rabbit HRP, #111-035-144) 1:1 diluted in glycerol, store at −20° C. The working solution: 1×2000 dilution of stock in blocking buffer. • Chemiluminescent working solution (Pierce, 37030): SuperSignal ELISA (enzyme linked immunosorbant assay) Pico Chemiluminescent substrate. • Crystal Violet solution: Stock: 2.5% Crystal violet in methanol, filtered and kept at ambient temperature. The working solution: dilute the stock 1:20 with PBS immediately before use. • 10% SDS: working solution: 5% SDS (sodium dodecylsulfate), diluted in PBS Methods: Day 1:
A 96 well TC (tissue culture treated) plate was coated with 10 μg/mL poly-L-Lysine at 37° C. for 30 min, washed twice with PBS, and air-dried for 5 minutes before cells were added. Hela cells were seeded at 10,000 cells/well and the cells were starved in 100 μL starvation medium containing Axl/Fc for 24 hrs.
The cells were pre-treated with test compounds by adding 100 μL of 2× test compound to the starvation medium on the cells. The cells were incubated at 37° C. for 1 hr before stimulation.
The resulting mix was warmed to 37° C. 50 μL of 5×Axl 1st/2nd of antibody cluster was added to the cells and the cells were incubated at 37° C. for 5 min.
After 5 minutes stimulation, the plate was flicked to remove medium and the plate was tapped onto paper towels. Formaldehyde (4.0% in PBS, 100 μL) was added to fix the cells and the cells were incubated at ambient temperature for 20 min without shaking.
The cells were washed with a plate washer buffer to remove the formaldehyde solution. The plate was flicked to removed excess wash buffer and tapped onto paper towels. Quenching buffer (100 μL) was added to each well and the cells were incubated at ambient temperature for 20 minutes without shaking.
The cells were washed with a plate washer buffer to remove the quenching buffer. Blocking buffer (100 μL) was added and the cells were incubated at ambient temperature for at least an hour with gentle shaking.
The cells were washed with a plate washer buffer and diluted primary antibody (50 μL) was added to each well (blocking buffer was added to the negative control wells instead). The plates were incubated overnight at 4° C. with gentle shaking.
The wash buffer was removed, diluted secondary antibody (100 μL) was added, and the cells were incubated at ambient temperature for 1 hour with gentle shaking. During the incubation, the chemiluminescent reagent was brought to ambient temperature.
The secondary antibody was removed by washing the cells 1× with wash buffer, 1× with PBS by plate washer.

Where [1] appears, read: Hela cells, phospho-Akt chemiluminescence normalized to relative cell number, compounds of formula (Ia), Table 1.
The mark [2] stands for this setting: Hela cells, phospho-Akt chemiluminescence normalized to relative cell number, compounds of formula (Ib), Table 2.
Setting [3] is: inhibition of Axl activity, Table 1, compounds of formula (Ia).

Take `CC(C)(C)OC(=O)NC1CCN(c2ccc(Nc3nc(N)n(-c4cc5c(nn4)-c4ccccc4CCC5)n3)cc2F)CC1` [Compound 86, 1-(6,7-dihydro-5H-benzo[6,7]cyclohepta[1,2-c]pyridazin-3-yl)-N^3-(3-fluoro-4-(4-(tert-butyloxycarbonylamino)-piperidin-1-yl)phenyl)-1H-1,2,4-triazole-3,5-diamine]: the IC50 under setting [1] fell in the range of 1 to 10 µM.
On to `CN1CCN(c2ccc(Nc3nc(N)nn3-c3cc4c(nn3)-c3ccccc3N(C)CC4)cc2)CC1` [Compound 162, 1-(7-methyl-6,7-dihydro-5H-benzo[2,3]azepino[4,5-c]pyridazin-3-yl)-N^5-(4-(N-methylpiperazin-1-yl)phenyl)-1H-1,2,4-triazole-3,5-diamine], for which the IC50 under setting [2] was over 20 µM.
The same measure, in the same setting: to `Nc1nc(Nc2ccc(N3CCC(N4CCCC4)CC3)cc2)n(-c2cc3c(nn2)-c2ccccc2CCC3)n1` [Compound 164, 1-(6,7-dihydro-5H-benzo[6,7]cyclohepta[1,2-c]pyridazin-3-yl)-N^5-(4-(4-pyrrolidin-1-ylpiperidinyl)phenyl)-1H-1,2,4-triazole-3,5-diamine] belongs 1 to 10 µM.
In the case of `Nc1nc(Nc2ccc(N3CCN(CC4CC4)CC3)nc2)nn1-c1cc2c(nn1)-c1ccccc1CCC2` [Compound 187, 1-(6,7-dihydro-5H-benzo[6,7]cyclohepta[1,2-c]pyridazin-3-yl)-N^3-(2-(4-cyclopropylmethylpiperazin-1-yl)pyridine-5-yl)-1H-1,2,4-triazole-3,5-diamine], under setting [3], the IC50 was 1 to 10 µM.
On to `Nc1nc(Nc2ccc(N3CCC(N4CCOCC4)CC3)c(F)c2)nn1-c1cc2c(nn1)-c1ccccc1CCC2` [Compound 9, 1-(6,7-dihydro-5H-benzo[6,7]cyclohepta[1,2-c]pyridazin-3-yl)-N^3-(3-fluoro-4-(4-(morpholin-4-yl)piperidin-1-yl)phenyl)-1H-1,2,4-triazole-3,5-diamine], for which the IC50 under setting [1] fell in the range of 1 to 10 µM.
On the same count and under the same terms, next, `Nc1nc(Nc2ccc(N3CCC(N4CCCC4)CC3)c(F)c2)nn1-c1cc2c(nn1)-c1ccccc1SCC2` [Compound 119, 1-(6,7-dihydro-5H-benzo[2,3]thiepino[4,5-c]pyridazin-3-yl)-N^3-(3-fluoro-4-(4-pyrrolidin-1-ylpiperidinyl)phenyl)-1H-1,2,4-triazole-3,5-diamine]: under 1 µM.
In the case of `Nc1nc(Nc2ccc(/C=C/CN3CCC(N4CCCC4)CC3)nc2)nn1-c1cc2c(nn1)-c1ccccc1CCC2` [Compound 141, 1-(6,7-dihydro-5H-benzo[6,7]cyclohepta[1,2-c]pyridazin-3-yl)-N^3-(6-(3-(4-(pyrrolidin-1-yl)piperidin-1-yl)-(E)-propenyl)pyridin-3-yl)-1H-1,2,4-triazole-3,5-diamine], the IC50 under setting [3] was in the range of 1 to 10 µM.
As to `Nc1nc(Nc2ccc(OCCN3CCCC3)cc2)nn1C1=Nc2ccccc2Sc2ccccc21` [Compound 49, 1-((Z)-dibenzo[b,f][1,4]thiazepin-11-yl)-N^3-(4-(2-(pyrrolidin-1-yl)ethoxy)phenyl)-1H-1,2,4-triazole-3,5-diamine], under setting [1], the IC50 lay in the range of 1 to 10 µM.
Same read-out and setting: next, `CN1CCN(c2ccc(Nc3nc(N)n(-c4cc5c(nn4)-c4ccccc4CCC5)n3)cc2)CC1` [Compound 34, 1-(6,7-dihydro-5H-benzo[6,7]cyclohepta[1,2-c]pyridazin-3-yl)-N^3-(4-(4-methylpiperazin-1-yl)phenyl)-1H-1,2,4-triazole-3,5-diamine]: under 1 µM.
`Nc1nc(Nc2ccc3c(c2)CCC(NC2CCC2)CC3)nn1-c1cc2c(nn1)-c1ccccc1CCC2` (stereo not shown) [Compound 229, 1-(6,7-dihydro-5H-benzo[6,7]cyclohepta[1,2-c]pyridazin-3-yl)-N^3-(7-cyclobutylamino-6,7,8,9-tetrahydro-5H-benzo[7]annulene-2-yl)-1H-1,2,4-triazole-3,5-diamine]: under setting [3], the IC50 was under 1 µM.
Same read-out and setting: next, `Nc1nc(Nc2ccc3c(c2)CN(CC2CC2)CC3)nn1-c1cc2c(nn1)-c1ccccc1CCC2` [Compound 216, 1-(6,7-dihydro-5H-benzo[6,7]cyclohepta[1,2-c]pyridazin-3-yl)-N^3-(2-(cyclopropylmethyl)-1,2,3,4-tetrahydroisoquinolin-7-yl)-1H-1,2,4-triazole-3,5-diamine]: under 1 µM.
Regarding `Nc1nc(Nc2ccc(N3CCN(CC4CC4)CC3)c(F)c2)n(-c2cc3c(nn2)-c2ccccc2CCC3)n1` [Compound 244, 1-(6,7-dihydro-5H-benzo[6,7]cyclohepta[1,2-c]pyridazin-3-yl)-N^5-(3-fluoro-4-(4-cyclopropylmethylpiperazin-1-yl)phenyl)-1H-1,2,4-triazole-3,5-diamine], the IC50 under setting [2] is under 1 µM.
In the case of `Nc1nc(Nc2ccc(N3CCC(N4CCCC4)CC3)c(F)c2)nn1-c1cc2c(nn1)-c1cc(F)ccc1CCC2` [Compound 53, 1-(6,7-dihydro-5H-10-fluorobenzo[6,7]cyclo-hepta[1,2-c]pyridazin-3-yl)-N^3-(3-fluoro-4-(4-(pyrrolidin-1-yl)piperidin-1-yl)phenyl)-1H-1,2,4-triazole-3,5-diamine], the half-inhibitory concentration (IC50) under setting [1] is under 1 µM.
As for `Nc1nc(Nc2ccc(N3CCCN(C4CCCC4)CC3)nc2)nn1-c1cc2c(nn1)-c1ccccc1CCC2` [Compound 25, 1-(6,7-dihydro-5H-benzo[6,7]cyclohepta[1,2-c]pyridazin-3-yl)-N^3-(6-(4-cyclopentyl-1,4-diazepan-1-yl)pyridin-3-yl)-1H-1,2,4-triazole-3,5-diamine], the IC50 under setting [1] was under 1 µM.
Regarding `CN1CC2CN(C3CCN(c4ccc(Nc5nc(N)n(-c6cc7c(nn6)-c6ccccc6CCC7)n5)cc4F)CC3)CC2C1` (stereo not shown) [Compound 134, 1-(6,7-dihydro-5H-benzo[6,7]cyclohepta[1,2-c]pyridazin-3-yl)-N^3-(3-fluoro-4-(4-(5-methyloctahydropyrrolo[3,4-c]pyrrolyl)piperidin-1-yl)phenyl)-1H-1,2,4-triazole-3,5-diamine], the IC50 under setting [3] is under 1 µM.
Regarding `Nc1nc(Nc2ccc(N3CCCCC(N4CCCC4)C3)c(F)c2)nn1-c1cc2c(nn1)-c1ccccc1CCC2` (stereo not shown) [Compound 69, 1-(6,7-dihydro-5H-benzo[6,7]cyclohepta[1,2-c]pyridazin-3-yl)-N^3-(3-fluoro-4-(3-pyrrolidin-1-yl-azepan-1-yl)phenyl)-1H-1,2,4-triazole-3,5-diamine], the IC50 under setting [1] is under 1 µM.
